Experiments:
CYP3A4.13 = CYP3A4.13 (Homo sapiens, UniProt P08684, P416L); test: Ziprasidone catalysis by recombinant CYP3A4.13
Method: (§1) Following the incubation, 400 μL of ACN and 20 μL of IS were added to the mixture. The sample was then vortexed and centrifuged, and the resulting supernatant was collected for analysis via LC-MS/MS.

CYP3A4.5 = CYP3A4.5 (Homo sapiens, UniProt P08684, P218R); test: Ziprasidone catalysis by recombinant CYP3A4.5
Method: as §1

CYP3A4.32 = CYP3A4.32 (Homo sapiens, UniProt P08684, I335T); test: Ziprasidone catalysis by recombinant CYP3A4.32
CYP3A4.32, sequence (P08684 whole entry I335T): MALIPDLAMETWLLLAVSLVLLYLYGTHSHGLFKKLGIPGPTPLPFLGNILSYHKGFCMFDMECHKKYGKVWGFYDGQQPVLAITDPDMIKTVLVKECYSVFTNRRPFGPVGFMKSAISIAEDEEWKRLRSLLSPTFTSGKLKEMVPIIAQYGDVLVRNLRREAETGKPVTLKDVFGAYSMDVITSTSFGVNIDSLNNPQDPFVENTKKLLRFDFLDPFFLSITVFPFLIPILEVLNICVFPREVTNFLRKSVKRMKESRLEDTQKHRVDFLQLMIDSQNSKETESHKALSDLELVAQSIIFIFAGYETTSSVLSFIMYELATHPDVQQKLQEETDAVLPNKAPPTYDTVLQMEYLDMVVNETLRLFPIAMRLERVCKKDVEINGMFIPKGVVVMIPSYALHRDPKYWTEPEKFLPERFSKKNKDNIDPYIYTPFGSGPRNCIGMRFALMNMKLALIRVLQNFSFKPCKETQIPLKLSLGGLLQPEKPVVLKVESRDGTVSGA
Method: as §1

[1] = design: method as in Beedham et al., 2003; conditions: humans; ref Beedham et al., 2003; cited from earlier work
CYP3A4.31 = CYP3A4.31 (Homo sapiens, UniProt P08684, H324Q); test: Ziprasidone catalysis by recombinant CYP3A4.31
CYP3A4.31, sequence (P08684 whole entry H324Q): as the sequence (P08684 whole entry I335T) above, with H324Q, T335I counted along it
Method: as §1

CYP3A4.1 = CYP3A4.1 (Homo sapiens, UniProt P08684); test: Ziprasidone catalysis by recombinant CYP3A4.1
CYP3A4.1, sequence (P08684 whole entry): as the sequence (P08684 whole entry I335T) above, with T335I counted along it
Method: as §1

CYP3A4.14 = CYP3A4.14 (Homo sapiens, UniProt P08684, L15P); test: Ziprasidone catalysis by recombinant CYP3A4.14
CYP3A4.14, sequence (P08684 whole entry L15P): as the sequence (P08684 whole entry I335T) above, with L15P, T335I counted along it
Method: as §1

CYP3A4.34 = CYP3A4.34 (Homo sapiens, UniProt P08684, I427V); test: Ziprasidone catalysis by recombinant CYP3A4.34; conditions: CYP3A4.34, CL = Vmax/Km
CYP3A4.34, sequence (P08684 whole entry I427V): as the sequence (P08684 whole entry I335T) above, with T335I, I427V counted along it
Method: as §1

CYP3A4.18 = CYP3A4.18 (Homo sapiens, UniProt P08684, L293P); test: Ziprasidone catalysis by recombinant CYP3A4.18
CYP3A4.18, sequence (P08684 whole entry L293P): as the sequence (P08684 whole entry I335T) above, with L293P, T335I counted along it
Method: as §1

CYP3A4.23 = CYP3A4.23 (Homo sapiens, UniProt P08684, R162W); test: Ziprasidone catalysis by recombinant CYP3A4.23
CYP3A4.23, sequence (P08684 whole entry R162W): as the sequence (P08684 whole entry I335T) above, with R162W, T335I counted along it
Method: as §1

CYP3A4.9 = CYP3A4.9 (Homo sapiens, UniProt P08684, V170I); test: Ziprasidone catalysis by recombinant CYP3A4.9
CYP3A4.9, sequence (P08684 whole entry V170I): as the sequence (P08684 whole entry I335T) above, with V170I, T335I counted along it
Method: as §1

CYP3A4.8 = CYP3A4.8 (Homo sapiens, UniProt P08684, R130Q); test: Ziprasidone catalysis by recombinant CYP3A4.8
CYP3A4.8, sequence (P08684 whole entry R130Q): as the sequence (P08684 whole entry I335T) above, with R130Q, T335I counted along it
Method: as §1

CYP3A4.16 = CYP3A4.16 (Homo sapiens, UniProt P08684, T185S); test: Ziprasidone catalysis by recombinant CYP3A4.16; conditions: CYP3A4.16, CL = Vmax/Km
CYP3A4.16, sequence (P08684 whole entry T185S): as the sequence (P08684 whole entry I335T) above, with T185S, T335I counted along it
Method: as §1

[2] = Rat pharmacokinetic study of ziprasidone and ziprasidone sulfoxide with resveratrol or quercetin; conditions: male, Sprague-Dawley, plasma, po, 15 mg/kg, rats, n=6; for CL/F: CLz/F; for Vd/F: Vz/F; for half-life: t1/2z
Method: To minimize potential confounding effects of hormonal fluctuations, this study exclusively utilized male Sprague-Dawley (SD) rats (340 ± 15 g) obtained from Vital River Laboratories (Beijing, China).
Following a 7-day acclimatization period under controlled conditions (temperature: 20°C–25°C; humidity: 50%–65%; 12h/12 h light/dark cycle), 18 rats were fasted for 12 h (water ad libitum) and randomly divided into three treatment groups (n = 6 per group).
Serial blood samples (50 μL) were collected at predetermined time points (0, 1, 2, 4, 6, 8, 10, 12, 24, and 48 h) and processed with 150 μL acetonitrile and 20 μL midazolam IS (500 ng/mL). After vortex-mixing (2 min) and centrifugation (10,075 × g, 10 min), the supernatant was subjected to LC-MS/MS analysis. […] Calibration curves were established over 1–1,000 ng/mL for both analytes, with samples processed identically to study specimens.
Essential pharmacokinetic parameters were determined using a non-compartmental model through Drug and Statistics (DAS) software version 3.0. For the polymorphism experiment results, one-way ANOVA was performed in GraphPad Prism 8.0, while pharmacokinetic data were assessed using an unpaired t-test, with a p-value below 0.05 deemed statistically significant.

CYP3A4.3 = CYP3A4.3 (Homo sapiens, UniProt P08684, M445T); test: Ziprasidone catalysis by recombinant CYP3A4.3
CYP3A4.3, sequence (P08684 whole entry M445T): as the sequence (P08684 whole entry I335T) above, with T335I, M445T counted along it
Method: as §1

CYP3A4.12 = CYP3A4.12 (Homo sapiens, UniProt P08684, L373F); test: Ziprasidone catalysis by recombinant CYP3A4.12
CYP3A4.12, sequence (P08684 whole entry L373F): as the sequence (P08684 whole entry I335T) above, with T335I, L373F counted along it
Method: as §1

CYP3A4.24 = CYP3A4.24 (Homo sapiens, UniProt P08684, Q200H); test: Ziprasidone catalysis by recombinant CYP3A4.24; conditions: CYP3A4.24, CL = Vmax/Km
CYP3A4.24, sequence (P08684 whole entry Q200H): as the sequence (P08684 whole entry I335T) above, with Q200H, T335I counted along it
Method: as §1

CYP3A4.19 = CYP3A4.19 (Homo sapiens, UniProt P08684, P467S); test: Ziprasidone catalysis by recombinant CYP3A4.19
CYP3A4.19, sequence (P08684 whole entry P467S): as the sequence (P08684 whole entry I335T) above, with T335I, P467S counted along it
Method: as §1

CYP3A4.10 = CYP3A4.10 (Homo sapiens, UniProt P08684, D174H); test: Ziprasidone catalysis by recombinant CYP3A4.10
CYP3A4.10, sequence (P08684 whole entry D174H): as the sequence (P08684 whole entry I335T) above, with D174H, T335I counted along it
Method: as §1

CYP3A4.15 = CYP3A4.15 (Homo sapiens, UniProt P08684, R162Q); test: Ziprasidone catalysis by recombinant CYP3A4.15
CYP3A4.15, sequence (P08684 whole entry R162Q): as the sequence (P08684 whole entry I335T) above, with R162Q, T335I counted along it
Method: as §1

CYP3A4.33 = CYP3A4.33 (Homo sapiens, UniProt P08684, A370S); test: Ziprasidone catalysis by recombinant CYP3A4.33; conditions: CYP3A4.33, CL = Vmax/Km
CYP3A4.33, sequence (P08684 whole entry A370S): as the sequence (P08684 whole entry I335T) above, with T335I, A370S counted along it
Method: as §1

CYP3A4.28 = CYP3A4.28 (Homo sapiens, UniProt P08684, L22V); test: Ziprasidone catalysis by recombinant CYP3A4.28
CYP3A4.28, sequence (P08684 whole entry L22V): as the sequence (P08684 whole entry I335T) above, with L22V, T335I counted along it
Method: as §1

[3] = ziprasidone 15 mg/kg oral + quercetin 50 mg/kg i.g.
[4] = ziprasidone 15 mg/kg oral + resveratrol 50 mg/kg i.g.
[5] = ziprasidone 15 mg/kg oral, control (corn oil)

CYP3A4.13, sequence (P08684 whole entry P416L): as the sequence (P08684 whole entry I335T) above, with T335I, P416L counted along it
CYP3A4.5, sequence (P08684 whole entry P218R): as the sequence (P08684 whole entry I335T) above, with P218R, T335I counted along it

CL (CYP3A4.13; CYP3A4.13, CL = Vmax/Km): 5.60 ± 0.90 µL/min/pmol
% of CYP3A4.1 (CYP3A4.13; CYP3A4.13, relative clearance): 92.30 ± 14.84%
CL (CYP3A4.5; CYP3A4.5, CL = Vmax/Km): 4.65 ± 0.52 µL/min/pmol
% of CYP3A4.1 (CYP3A4.5; CYP3A4.5, relative clearance): 76.73 ± 8.59%
CL (CYP3A4.32; CYP3A4.32, CL = Vmax/Km): 7.66 ± 1.55 µL/min/pmol
% of CYP3A4.1 (CYP3A4.32; CYP3A4.32, relative clearance): 104.25 ± 21.13%
CL (CYP3A4.31; CYP3A4.31, CL = Vmax/Km): 4.08 ± 0.83 µL/min/pmol
% of CYP3A4.1 (CYP3A4.31; CYP3A4.31, relative clearance): 55.46 ± 11.30 %
CL (CYP3A4.1; CYP3A4.1, CL = Vmax/Km): 6.07 ± 1.19 µL/min/pmol
% of CYP3A4.1 (CYP3A4.1; CYP3A4.1, relative clearance): 100.00 ± 19.66%
CL (CYP3A4.14; CYP3A4.14, CL = Vmax/Km): 6.64 ± 0.48 µL/min/pmol
% of CYP3A4.1 (CYP3A4.14; CYP3A4.14, relative clearance): 109.41 ± 7.88%
CL (CYP3A4.34): 4.65 ± 0.66 µL/min/pmol
CL (CYP3A4.18; CYP3A4.18, CL = Vmax/Km): 6.56 ± 1.12 µL/min/pmol
% of CYP3A4.1 (CYP3A4.18; CYP3A4.18, relative clearance): 89.27 ± 15.28%
CL (CYP3A4.23; CYP3A4.23, CL = Vmax/Km): 6.11 ± 0.83 µL/min/pmol
% of CYP3A4.1 (CYP3A4.23; CYP3A4.23, relative clearance): 83.13 ± 11.26%
CL (CYP3A4.9; CYP3A4.9, CL = Vmax/Km): 7.92 ± 0.36 µL/min/pmol
% of CYP3A4.1 (CYP3A4.9; CYP3A4.9, relative clearance): 130.65 ± 6.00%
CL (CYP3A4.8; CYP3A4.8, CL = Vmax/Km): 5.71 ± 0.42 µL/min/pmol
% of CYP3A4.1 (CYP3A4.8; CYP3A4.8, relative clearance): 94.14 ± 6.86%
CL (CYP3A4.16): 6.79 ± 1.26 µL/min/pmol
AUC(0-t) [2, 3]: 9390 ng·h/mL
AUC(0-t) [2, 4]: 6760 ng·h/mL
AUC(0-t) [2, 5]: 6610 ng·h/mL
AUC(0-inf) [2, 3]: 9390 ng·h/mL
AUC(0-inf) [2, 4]: 6760 ng·h/mL
AUC(0-inf) [2, 5]: 6980 ng·h/mL
CL/F [2, 3]: 94.2 mL/min/kg
CL/F [2, 4]: 150 mL/min/kg
CL/F [2, 5]: 43.8 mL/min/kg
Cmax [2, 3]: 1620 ng/mL
Cmax [2, 4]: 1160 ng/mL
Cmax [2, 5]: 963 ± 367 ng/mL
Tmax [2, 3]: 4 ± 1.79 h
Tmax [2, 4]: 4.33 ± 2.66 h
Tmax [2, 5]: 4 ± 2.19 h
Vd/F [2, 3]: 33.3 ± 22.1 L/kg
Vd/F [2, 4]: 56.1 ± 42.7 L/kg
Vd/F [2, 5]: 24.3 ± 19.1 L/kg
half-life [2, 3]: 3.79 ± 2.11 h
half-life [2, 4]: 4.06 ± 1.52 h
half-life [2, 5]: 8.64 ± 10.8 h
CL (CYP3A4.3; CYP3A4.3, CL = Vmax/Km): 9.30 ± 0.85 µL/min/pmol
% of CYP3A4.1 (CYP3A4.3; CYP3A4.3, relative clearance): 153.26 ± 14.08 %
CL (CYP3A4.12; CYP3A4.12, CL = Vmax/Km): 5.72 ± 0.87 µL/min/pmol
% of CYP3A4.1 (CYP3A4.12; CYP3A4.12, relative clearance): 94.29 ± 14.33%
CL (CYP3A4.24): 3.46 ± 0.67 µL/min/pmol
CL (CYP3A4.19; CYP3A4.19, CL = Vmax/Km): 6.19 ± 0.53 µL/min/pmol
% of CYP3A4.1 (CYP3A4.19; CYP3A4.19, relative clearance): 84.26 ± 7.20%
CL (CYP3A4.10; CYP3A4.10, CL = Vmax/Km): 4.52 ± 0.35 µL/min/pmol
% of CYP3A4.1 (CYP3A4.10; CYP3A4.10, relative clearance): 74.60 ± 5.81%
CL (CYP3A4.15; CYP3A4.15, CL = Vmax/Km): 9.53 ± 1.38 µL/min/pmol
% of CYP3A4.1 (CYP3A4.15; CYP3A4.15, relative clearance): 157.07 ± 22.67 %
CL (CYP3A4.33): 14.74 ± 0.74 µL/min/pmol
CL (CYP3A4.28; CYP3A4.28, CL = Vmax/Km): 5.69 ± 1.01 µL/min/pmol
% of CYP3A4.1 (CYP3A4.28; CYP3A4.28, relative clearance): 77.40 ± 13.81%
Structure (SMILES): O=C1Cc2cc(CCN3CCN(c4nsc5ccccc45)CC3)c(Cl)cc2N1 [ziprasidone, Ziprasidone]
administered dose excreted unchanged [1]: less than 5%

From article PMC12069442 (Frontiers in Pharmacology, 2025)
